Measurements from patent publication EP0881220A1, “DIARYLSULTAM DERIVATIVES” (priority 1996, dated 1997).
Counter-ions that a name gives are not always drawn. Like-named read-outs stand apart in the source and are kept apart here.

Key:
[1] = biological target: T1, sigma 1 binding site (Cavia porcellus, UniProt Q60492); experiment: biochemical
[2] = biological target: T2, Dopamine D2 (Rattus norvegicus, UniProt P61169); experiment: Binding to dopaminergic receptors using rat striata (method of Terai et al.)
T2 construct: dopaminergic receptors was also measured using rat striata; from tissue; host or cells: rat striata
T2 sequence (P61169 whole entry): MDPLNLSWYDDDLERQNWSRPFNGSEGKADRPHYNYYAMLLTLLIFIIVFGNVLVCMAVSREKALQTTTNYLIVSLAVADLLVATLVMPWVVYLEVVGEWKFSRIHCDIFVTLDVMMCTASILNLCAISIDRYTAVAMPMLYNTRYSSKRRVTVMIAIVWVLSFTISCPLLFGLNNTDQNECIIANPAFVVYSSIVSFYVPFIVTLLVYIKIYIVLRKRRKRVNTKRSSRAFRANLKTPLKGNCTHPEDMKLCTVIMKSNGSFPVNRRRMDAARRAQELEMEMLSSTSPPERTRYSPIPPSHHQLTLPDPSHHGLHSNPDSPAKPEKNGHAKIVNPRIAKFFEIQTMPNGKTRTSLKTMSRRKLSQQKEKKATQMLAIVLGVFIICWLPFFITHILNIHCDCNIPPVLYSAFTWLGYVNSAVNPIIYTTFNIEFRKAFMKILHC
Protocol: The binding of these compounds to dopaminergic receptors was also measured using rat striata according to the method described by Terai et al. (M. Terai, et al., Eur. J. Pharmacol. 1989, 173, 177).

[3] = biological target: T3, sigma 2 binding site (Rattus norvegicus, UniProt Q5U3Y7); experiment: Sigma 2 selective receptor binding inhibition assay with [^3H]-di-o-tolylguanidine; conditions: for S2/S1 Ratio: ratio of Sigma 2 Ki to Sigma 1 Ki
T3 sequence (Q5U3Y7 1-176): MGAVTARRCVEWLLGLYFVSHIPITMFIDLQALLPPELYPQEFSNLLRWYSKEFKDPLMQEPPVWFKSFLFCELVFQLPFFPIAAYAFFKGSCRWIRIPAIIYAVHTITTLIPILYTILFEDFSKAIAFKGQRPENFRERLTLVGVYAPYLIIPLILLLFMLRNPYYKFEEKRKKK

[4] = biological target: T1, sigma 1 binding site

T1 sequence (Q60492 whole entry): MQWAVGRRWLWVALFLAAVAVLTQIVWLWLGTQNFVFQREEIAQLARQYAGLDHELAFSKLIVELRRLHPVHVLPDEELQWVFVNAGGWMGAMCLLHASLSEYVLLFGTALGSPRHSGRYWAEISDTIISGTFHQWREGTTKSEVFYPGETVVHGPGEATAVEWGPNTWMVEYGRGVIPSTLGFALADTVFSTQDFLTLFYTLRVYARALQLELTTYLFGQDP

Row | Structure (SMILES) | Ki [1] [nM] | Ki [2] [nM] | Ki [3] [nM] | S2/S1 Ratio [3] | Ki ([3]; read-out: Sigma 2 Ki(nM ± SEM), [^3H]-DTG 1 nM, rat liver crude P2 membrane fraction, 500 nM pentazocine, 2 hours at 25°C) [nM] | Ki [4] [nM]
1 | O=S1(=O)c2ccccc2Nc2ccccc2N1CC1CCN(CC(O)c2ccc(F)cc2F)CC1 (racemic) [Example 3, (R,S)-1-(2,4-Difluorophenyl)-2-[4-(6,11-dihydrodibenzo[c,f][1,2,5]thiadiazepin-6-yl-methyl)piperidin-1-yl]ethanol S,S-dioxide hydrochloride] | 280 | 700 | 16 | 0.06 | – | –
2 | Cc1ccccc1C(O)CN1CCC(CN2c3ccccc3Nc3ccccc3S2(=O)=O)CC1 (racemic) [Example 5, (R,S)-1-(2-Methylphenyl)-2-[4-(6,11-dihydrodibenzo[c,f][1,2,5]thiadiazepin-6-ylmethyl)piperidin-1-yl]ethanol S,S-dioxide hydrochloride] | 71 | 79 | 13 | 0.2 | – | –
3 | CN1c2ccccc2N(CC2CCN(CC(O)C34CC5CC(CC(C5)C3)C4)CC2)S(=O)(=O)c2ccccc21 (racemic) [Example 6, (R,S)-1-(1-Adamantyl)-2-[4-(11-methyl-6,11-dihydrodibenzo[c,f][1,2,5]thiadiazepin-6-ylmethyl)piperidin-1-yl]ethanol S,S-dioxide hydrochloride] | 2100 | 170 | 2.7 | 0.001 | – | –
4 | CN1c2ccccc2N(CC2CCN(CC(O)c3ccc(F)cc3)CC2)S(=O)(=O)c2ccccc21 (racemic) [Example 7, (R,S)-1-(4-Fluorophenyl)-2-[4-(11-methyl-6,11-dihydrodibenzo[c,f][1,2,5]thiadiazepin-6-ylmethyl)piperidin-1-yl]ethanol S,S-dioxide hydrochloride] | 540 | 320 | 4 | 0.007 | – | –
5 | O=S1(=O)c2ccccc2Nc2ccc(Cl)cc2N1CC1CCN(CC(O)C23CC4CC(CC(C4)C2)C3)CC1 (racemic) [Example 8, (R,S)-1-(1-Adamantyl)-2-[4-(8-chloro-6,11-dihydrodibenzo[c,f][1,2,5]thiadiazepin-6-ylmethyl)piperidin-1-yl]ethanol S,S-dioxide hydrochloride] | 630 | 410 | 16 | 0.03 | – | –
6 | O=S1(=O)c2ccccc2Oc2ccccc2N1CC1CCN(CC(O)c2ccc(Cl)cc2)CC1 (racemic) [Example 11, (R,S)-1-(4-Chlorophenyl)-2-[4-(6H-dibenzo[b,f][1,4,5]oxathiazepin-6-ylmethyl)piperidin-1-yl]ethanol S,S-dioxide hydrochloride] | 43 | 200 | 2.3 | 0.05 | – | –
7 | COc1ccc(C(O)CN2CCC(CN3c4ccccc4Oc4ccccc4S3(=O)=O)CC2)cc1 (racemic) [Example 12, (R,S)-1-(4-Methoxyphenyl)-2-[4-(6H-dibenzo[b,f][1,4,5]oxathiazepin-6-ylmethyl)piperidin-1-yl]ethanol S,S-dioxide hydrochloride] | 78 | 280 | 7.1 | 0.09 | – | –
8 | Cc1ccc(C(O)CN2CCC(CN3c4ccccc4Oc4ccccc4S3(=O)=O)CC2)cc1 (racemic) [Example 13, (R,S)-1-(4-Methylphenyl)-2-[4-(6H-dibenzo[b,f][1,4,5]oxathiazepin-6-ylmethyl)piperidin-1-yl]ethanol S,S-dioxide hydrochloride] | 89 | 180 | 1.6 | 0.02 | – | –
9 | O=S1(=O)c2cc(Cl)ccc2Oc2ccccc2N1CC1CCN(CC(O)C23CC4CC(CC(C4)C2)C3)CC1 (racemic) [Example 14, (R,S)-1-(1-Adamantyl)-2-[4-(3-chloro-6H-dibenzo[b,f][1,4,5]oxathiazepin-6-ylmethyl)piperidin-1-yl]ethanol S,S-dioxide hydrochloride] | 380 | 120 | 3.1 | 0.008 | – | –
10 | O=S1(=O)c2cc(Cl)ccc2Oc2ccccc2N1CC1CCN(CC(O)c2ccccc2)CC1 (racemic) [Example 15, (R,S)-1-Phenyl-2-[4-(3-chloro-6H-dibenzo[b,f][1,4,5]oxathiazepin-6-yl-methyl)piperidin-1-yl]ethanol S,S-dioxide hydrochloride] | 110 | 180 | 1.3 | 0.01 | – | –
11 | O=S1(=O)c2cc(Cl)ccc2Oc2ccccc2N1CC1CCN(CC(O)c2ccc(F)cc2)CC1 (racemic) [Example 16, (R,S)-1-(4-Fluorophenyl)-2-[4-(3-chloro-6H-dibenzo[b,f][1,4,5]oxathiazepin-6-ylmethyl)piperidin-1-yl]ethanol S,S-dioxide hydrochloride] | 85 | 210 | 1.1 | 0.01 | – | –
12 | O=S1(=O)c2cc(Cl)ccc2Oc2ccccc2N1CC1CCN(CC(O)c2ccc3ccccc3c2)CC1 (racemic) [Example 17, (R,S)-1-(2-Naphthyl)-2-[4-(3-chloro-6H-dibenzo[[b,f][1,4,5]oxathiazepin-6-ylmethyl)piperidin-1-yl]ethanol S,S-dioxide hydrochloride] | 510 | 350 | 4.2 | 0.008 | – | –
13 | O=S1(=O)c2cc(Cl)ccc2Oc2ccccc2N1CC1CCN(CC(O)c2ccc(C(F)(F)F)cc2)CC1 (racemic) [Example 18, (R,S)-1-(4-Trifluoromethylphenyl)-2-[4-(3-chloro-6H-dibenzo[b,f][1,4,5]oxathiazepin-6-ylmethyl)piperidin-1-yl]ethanol S,S-dioxide hydrochloride] | 1100 | 350 | 3.2 | 0.003 | – | –
14 | O=S1(=O)c2cc(Cl)ccc2Oc2ccccc2N1CC1CCN(CC(O)c2ccc(OC(F)(F)F)cc2)CC1 (racemic) [Example 19, (R,S)-1-(4-Trifluoromethoxyphenyl)-2-[4-(3-chloro-6H-dibenzo[b,f][1,4,5]oxathiazepin-6-ylmethyl)piperidin-1-yl]ethanol S,S-dioxide hydrochloride] | 1200 | 270 | 8.4 | 0.007 | – | –
15 | COc1ccc2c(c1)N(CC1CCN(CC(O)C34CC5CC(CC(C5)C3)C4)CC1)S(=O)(=O)c1cc(Cl)ccc1O2 (racemic) [Example 20, hydrochloride] | 3500 | 790 | 10 | 0.003 | – | –
16 | COc1ccc2c(c1)N(CC1CCN(CC(O)c3ccc(F)cc3)CC1)S(=O)(=O)c1cc(Cl)ccc1O2 (racemic) [Example 21, (R,S)-1-(4-Fluorophenyl)-2-[4-(3-chloro-8-methoxy-6H-dibenzo[b,f][1,4,5]oxathiazepin-6-ylmethyl)piperidin-1-yl]ethanol S,S-dioxide hydrochloride] | 420 | 820 | 9 | 0.02 | – | –
17 | COc1ccc2c(c1)N(CC1CCN(CC(O)c3ccc(F)cc3)CC1)S(=O)(=O)c1ccccc1O2 (racemic) [Example 22, (R,S)-1-(4-Fluorophenyl)-2-[4-(8-methoxy-6H-dibenzo[b,f][1,4,5]oxathiazepin-6-ylmethyl)piperidin-1-yl]ethanol S,S-dioxide hydrochloride] | 70 | 870 | 3.7 | 0.05 | – | –
18 | CN(CCCCN1c2ccccc2Oc2ccc(Cl)cc2S1(=O)=O)CC(O)C12CC3CC(CC(C3)C1)C2 (racemic) [Example 23, (R,S)-1-(1-Adamantyl)-2-[N-methyl-N-[4-(3-chloro-6H-dibenzo[b,f][1,4,5]oxathiazepin-6-yl)butyl]amino]ethanol S,S-dioxide hydrochloride] | 1600 | 1100 | 35 | 0.02 | – | –
19 | CN(CCCCN1c2ccccc2Oc2ccc(Cl)cc2S1(=O)=O)CC(O)c1ccc(F)cc1 (racemic) [Example 24, (R,S)-1-(4-Fluorophenyl)-2-[N-methyl-N-[4-(3-chloro-6H-dibenzo[b,f][1,4,5]oxathiazepin-6-yl)butyl]amino]ethanol S,S-dioxide hydrochloride] | 140 | 800 | 19 | 0.1 | – | –
20 | O=C(CN1CCC(CN2c3ccccc3Nc3ccccc3S2(=O)=O)CC1)C12CC3CC(CC(C3)C1)C2 [Example 1, 6-[[1-[2-(1-Adamantyl)-2-oxoethyl]-4-piperidinyl]methyl]-6,11-dihydrodibenzo[c,f][1,2,5]thiadiazepine 5,5-dioxide·hydrochloride] | 150 | > 1000 | 5 | 0.03 | – | –
21 | O=C(O)/C=C/C(=O)O.O=S1(=O)c2ccccc2Nc2ccccc2N1CC1CCN(C[C@H](O)C23CC4CC(CC(C4)C2)C3)CC1.O=S1(=O)c2ccccc2Nc2ccccc2N1CC1CCN(C[C@H](O)C23CC4CC(CC(C4)C2)C3)CC1 [Example 2, (R,S)-1-(1-Adamantyl)-2-[4-(6,11-dihydrodibenzo[c,f][1,2,5]thiadiazepin-6-ylmethyl)piperidin-1-yl]ethanol S,S-dioxide hemifumarate] | – | 450 | – | 0.01 | 4.1 | 320
